Results taken from patent US9856216B2, “Compounds as TNIK, IKKε and TBK1 inhibitors and pharmaceutical composition comprising same” (GREEN CROSS CORPORATION, priority 2015, dated 2018).

What follows are compounds tested against T1, TNIK (Homo sapiens, UniProt Q9UKE5) (assay: ADP-Glo Kinase Assay, inhibition activity on TNIK). Conditions: not given.
T1 construct: purchased Promega V4158
Format: biochemical
Experimental: The inhibition activities on TNIK, IKKε and TBK1 were measured by a luminometer, TNIK/IKKε/TBK1 Kinase Enzyme System (Promega, Ca# V4158; Invitrogen, PR8031B, Promega, Ca# V3991) and ADP-Glo Kinase Assay using ADP-Glo™ Kinase Analysis Kit (Promega, Ca# V9101) and a kinase reaction buffer [40 mM Tris(pH 7.5), 20 mM MgCl2, 0.1 mg/mL BSA] in accordance with the manufacturer's protocol.

T1 sequence (Q9UKE5 1-367 limits assumed): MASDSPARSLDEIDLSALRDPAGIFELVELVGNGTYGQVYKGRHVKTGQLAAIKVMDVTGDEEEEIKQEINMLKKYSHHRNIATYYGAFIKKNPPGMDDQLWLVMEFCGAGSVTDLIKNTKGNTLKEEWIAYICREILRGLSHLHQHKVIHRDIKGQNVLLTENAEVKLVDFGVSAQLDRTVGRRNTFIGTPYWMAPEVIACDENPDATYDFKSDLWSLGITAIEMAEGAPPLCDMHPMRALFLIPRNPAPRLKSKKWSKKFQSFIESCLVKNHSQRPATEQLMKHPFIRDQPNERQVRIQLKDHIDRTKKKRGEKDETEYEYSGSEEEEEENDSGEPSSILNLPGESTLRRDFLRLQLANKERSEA

| TNIK (μM) | SMILES |
| --- | --- |
| Insoluble | O=C1NCc2c(-c3ccccc3)ccc(NCCN3C(=O)c4ccccc4C3=O)c21 [Example 257, 2-(2-((3-Oxo-7-phenylisoindolin-4-yl)amino)ethyl)isoindolin-1,3-dione] |
| Insoluble | O=C1NCc2c(-c3ccccc3)ccc(NCCCN3C(=O)c4ccccc4C3=O)c21 [Example 264, 2-(3-((3-Oxo-7-phenylisoindolin-4-yl)amino)propyl)isoindolin-1,3-dione] |
| Insoluble | COc1cccc(-c2ccc(N)c3c2C(=O)NC3=O)c1OC [Example 273, 4-Amino-7-(2,3-dimethoxyphenyl)isoindolin-1,3-dione] |

Same assay, conditions: TNIK (μM)

| SMILES | IC50 [µM] |
| --- | --- |
| O=C1NCc2c(-c3ccccc3)ccc(NCCCl)c21 [Example 253, 7-((2-Chloroethyl)amino)-4-phenylisoindolin-1-one] | 2.6 |

Same assay, conditions: read-out: TNIK

| SMILES | IC50 [µM] |
| --- | --- |
| N#Cc1ccc(NC(=O)Nc2ccc(-c3ccccc3)c3c2C(=O)NC3)cc1 [Example 228, 1-(4-Cyanophenyl)-3-(3-oxo-7-phenylisoindolin-4-yl)urea] | > 20 |
| O=C(Nc1ccc(-c2ccccc2)c2c1C(=O)NC2)NC1CCCCC1 [Example 231, 1-Cyclohexyl-3-(3-oxo-7-phenylisoindolin-4-yl)urea] | > 20 |
| COc1ccccc1NC(=O)Nc1ccc(-c2ccccc2)c2c1C(=O)NC2 [Example 233, 1-(2-Methoxyphenyl)-3-(3-oxo-7-phenylisoindolin-4-yl)urea] | 16.7 |
| O=C(Nc1ccc([N+](=O)[O-])cc1)Nc1ccc(-c2ccccc2)c2c1C(=O)NC2 [Example 235, 1-(4-Nitrophenyl)-3-(3-oxo-7-phenylisoindolin-4-yl)urea] | 4.6 |
| CC(=O)c1ccc(NC(=O)Nc2ccc(-c3ccccc3)c3c2C(=O)NC3)cc1 [Example 237, 1-(4-Acetylphenyl)-3-(3-oxo-7-phenylisoindolin-4-yl)urea] | 4.9 |
| Cc1ccccc1NC(=O)Nc1ccc(-c2ccccc2)c2c1C(=O)NC2 [Example 238, 1-(3-Oxo-7-phenylisoindolin-4-yl)-3-(o-tolyl)urea] | > 20 |
| O=C(Nc1ccc(-c2ccccc2)c2c1C(=O)NC2)NC1CCCC1 [Example 239, 1-Cyclopentyl-3-(3-oxo-7-phenylisoindolin-4-yl)urea] | > 20 |
| O=C(Nc1ccccc1)Nc1ccc(-c2ccc(F)cc2)c2c1C(=O)NC2 [Example 245, 1-(7-(4-Fluorophenyl)-3-oxoisoindolin-4-yl)-3-phenylurea] | 6.5 |
| Nc1ccc(-c2ccccc2)c2c1C(=O)N(C(=O)NC1CCCCC1)C2 [Example 246, 7-Amino-N-cyclohexyl-1-oxo-4-phenylisoindolin-2-carboxamide] | > 20 |
| O=C1NCc2c(-c3ccccc3)ccc(NC(=S)Nc3ccccc3)c21 [Example 247, 1-(3-Oxo-7-phenylisoindolin-4-yl)-3-phenylthiourea] | > 20 |
| O=C(Nc1ccc(-c2ccccc2)c2c1C(=O)NC2)Oc1ccccc1 [Example 248, Phenyl (3-oxo-7-phenylisoindolin-4-yl)carbamate] | > 20 |
| O=C1NCc2c(-c3ccccc3)ccc(NS(=O)(=O)c3ccccc3)c21 [Example 249, N-(3-oxo-7-phenylisoindolin-4-yl)benzenesulfonamide] | > 20 |
| CS(=O)(=O)Nc1ccc(-c2ccccc2)c2c1C(=O)NC2 [Example 250, N-(3-oxo-7-phenylisoindolin-4-yl)methanesulfonamide] | 21 |
| O=C1NCc2c(-c3ccccc3)ccc(NS(=O)(=O)c3ccc(F)cc3)c21 [Example 251, 4-Fluoro-N-(3-oxo-7-phenylisoindolin-4-yl)benzene sulfonamide] | > 20 |
| COc1ccc(S(=O)(=O)Nc2ccc(-c3ccccc3)c3c2C(=O)NC3)cc1 [Example 252, 4-Methoxy-N-(3-oxo-7-phenylisoindolin-4-yl)benzene sulfonamide] | > 20 |
| N#CCCNc1ccc(-c2ccccc2)c2c1C(=O)NC2 [Example 254, 3-((3-Oxo-7-phenylisoindolin-4-yl)amino)propanenitrile] | 5.6 |
| CN(C)CCNc1ccc(-c2ccccc2)c2c1C(=O)NC2 [Example 255, 7-((2-(Dimethylamino)ethyl)amino)-4-phenylisoindolin-1-one] | > 20 |
| O=C1NCc2c(-c3ccccc3)ccc(NCCO)c21 [Example 256, 7-((2-Hydroxyethyl)amino)-4-phenylisoindolin-1-one] | 4.9 |
| CN1CCN(CCNc2ccc(-c3ccccc3)c3c2C(=O)NC3)CC1 [Example 258, 7-((2-(4-Methylpiperazin-1-yl)ethyl)amino)-4-phenylisoindolin-1-one] | > 20 |
| O=C1NCc2c(-c3ccccc3)ccc(NCCN3CCCCC3)c21 [Example 259, 4-Phenyl-7-((2-(piperidin-1-yl)ethyl)amino)isoindolin-1-one] | > 20 |
| O=C1NCc2c(-c3ccccc3)ccc(NCCN3CCOCC3)c21 [Example 260, 7-((2-Morpholinoethyl)amino)-4-phenylisoindolin-1-one] | > 20 |
| CNCCNc1ccc(-c2ccccc2)c2c1C(=O)NC2 [Example 261, 7-((2-(Methylamino)ethyl)amino)-4-phenylisoindolin-1-one] | > 20 |
| O=C1NCc2c(-c3ccccc3)ccc(NCCN3CCCC3)c21 [Example 262, 4-Phenyl-7-((2-(pyrrolidin-1-yl)ethyl)amino)isoindolin-1-one] | > 20 |
| O=C1NCc2c(-c3ccccc3)ccc(NCc3ccccc3)c21 [Example 263, 7-(Benzylamino)-4-phenylisoindolin-1-one] | > 20 |
| COc1ccccc1-c1ccc(N)c2c1C(=O)NC2=O [Example 272, 4-Amino-7-(2-methoxyphenyl)isoindolin-1,3-dione] | 10.9 |
| O=C(Nc1ncc(-c2ccccc2)c2c1C(=O)NC2)c1ccc(F)cc1 [Example 279, 4-Fluoro-N-(3-oxo-7-phenyl-2,3-dihydro-1H-pyrrolo[3,4-c]pyridin-4-yl)benzamide] | > 20 |

More lines, now with the values ahead:

| IC50 [µM] | SMILES |
| --- | --- |
| 1.1 | CCCCNC(=O)Nc1ccc(-c2ccccc2)c2c1C(=O)NC2 [Example 229, 1-Butyl-3-(3-oxo-7-phenylisoindolin-4-yl)urea] |
| 0.9 | COc1ccc(NC(=O)Nc2ccc(-c3ccccc3)c3c2C(=O)NC3)cc1 [Example 230, 1-(4-Methoxyphenyl)-3-(3-oxo-7-phenylisoindolin-4-yl)urea] |
| 2.1 | Cc1ccc(NC(=O)Nc2ccc(-c3ccccc3)c3c2C(=O)NC3)cc1 [Example 232, 1-(3-Oxo-7-phenylisoindolin-4-yl)-3-(p-tolyl)urea] |
| 1.9 | CC(C)NC(=O)Nc1ccc(-c2ccccc2)c2c1C(=O)NC2 [Example 234, 1-Isopropyl-3-(3-oxo-7-phenylisoindolin-4-yl)urea] |
| 0.58 | CCNC(=O)Nc1ccc(-c2ccccc2)c2c1C(=O)NC2 [Example 236, 1-Ethyl-3-(3-oxo-7-phenylisoindolin-4-yl)urea] |
| 2.4 | O=C(Nc1cccc(F)c1)Nc1ccc(-c2ccccc2)c2c1C(=O)NC2 [Example 240, 1-(3-Fluorophenyl)-3-(3-oxo-7-phenylisoindolin-4-yl)urea] |
| 2.7 | CSc1cccc(NC(=O)Nc2ccc(-c3ccccc3)c3c2C(=O)NC3)c1 [Example 241, 1-(3-(Methylthio)phenyl)-3-(3-oxo-7-phenylisoindolin-4-yl) urea] |
| 2.3 | O=C(Nc1ccccc1F)Nc1ccc(-c2ccccc2)c2c1C(=O)NC2 [Example 242, 1-(2-Fluorophenyl)-3-(3-oxo-7-phenylisoindolin-4-yl)urea] |
| 3.9 | O=C(Nc1ccc(Cl)cc1)Nc1ccc(-c2ccccc2)c2c1C(=O)NC2 [Example 243, 1-(4-Chlorophenyl)-3-(3-oxo-7-phenylisoindolin-4-yl)urea] |
| 4.02 | COc1ccc(-c2ccc(NC(=O)Nc3ccccc3)c3c2CNC3=O)cc1 [Example 244, 1-(7-(4-Methoxyphenyl)-3-oxoisoindolin-4-yl)-3-phenylurea] |
| 2.5 | Nc1ccc(-c2ccccc2)c2c1C(=O)NC2=O [Example 271, 4-Amino-7-phenylisoindolin-1,3-dione] |
| 3.6 | Nc1ccc(-c2ccco2)c2c1C(=O)NC2=O [Example 274, 4-Amino-7-(furan-2-yl)isoindolin-1,3-dione] |
| 1.1 | Nc1ccc(-c2cccs2)c2c1C(=O)NC2=O [Example 275, 4-Amino-7-(thiophen-2-yl)isoindolin-1,3-dione] |
| 1.1 | O=C(Nc1ccc(-c2ccccc2)c2c1C(=O)NC2=O)c1ccccc1 [Example 276, N-(1,3-dioxo-7-phenylisoindolin-4-yl)benzamide] |
| 0.65 | COc1ccccc1-c1ccc(NC(=O)c2ccccc2)c2c1C(=O)NC2=O [Example 277, N-(7-(2-methoxyphenyl)-1,3-dioxoisoindolin-4-yl)benzamide] |
| 0.41 | COc1cccc(-c2ccc(NC(=O)c3ccccc3)c3c2C(=O)NC3=O)c1OC [Example 278, N-(7-(2,3-dimethoxyphenyl)-1,3-dioxoisoindolin-4-yl) benzamide] |
| 0.073 | COc1cccc(-c2ccc(NC(=O)c3ccc(NCCCN4CCCC4)cc3)c3c2CNC3=O)c1OC [Example 280, N-(7-(2,3-dimethoxyphenyl)-3-oxoisoindolin-4-yl)-4-((3-(pyrrolidin-1-yl)propyl)amino)benzamide] |
| 2.42 | CN(C)CCNc1ccc(C(=O)Nc2ccc(Br)c3c2C(=O)NC3)cc1 [Example 281, N-(7-bromo-3-oxoisoindolin-4-yl)-4-((2-(dimethylamino)ethyl)amino)benzamide] |
| 1.4 | O=C(Nc1ccc(Br)c2c1C(=O)NC2)c1ccc(NCCCN2CCCCC2)cc1 [Example 282, N-(7-bromo-3-oxoisoindolin-4-yl)-4-((3-(piperidin-1-yl)propyl)amino)benzamide] |
| 1.76 | O=C(Nc1ccc(Br)c2c1C(=O)NC2)c1ccc(NCCN2CCCC2)cc1 [Example 283, N-(7-bromo-3-oxoisoindolin-4-yl)-4-((2-(pyrrolidin-1-yl)ethyl)amino)benzamide] |
